# Experimental data as given in US20250163104A1, “MACROCYCLIC IMMUNOMODULATORS” (priority 2021, published 2025).
# Where a SMILES comes first, the peptide text is derived from it. Bridges are numbered along the chain shown (N, C = ends). [ ]: non-standard residue; d: D form. The star is where a group is joined. Phe(4-CH2CH2COOH) = N[C@@H](Cc1ccc(CCC(=O)O)cc1)C(=O)O; Phe(4-COOH) = N[C@@H](Cc1ccc(C(=O)O)cc1)C(=O)O; Bip = N[C@@H](Cc1ccc(-c2ccccc2)cc1)C(=O)O; Phe(3-Me) = Cc1cccc(C[C@H](N)C(=O)O)c1; h4Pal = N[C@@H](CCc1ccncc1)C(=O)O; 4Pal = N[C@@H](Cc1ccncc1)C(=O)O; Cit = NC(=O)NCCC[C@H](N)C(=O)O; Carboxymethyl = O=C(O)C*; Orn = NCCC[C@H](N)C(=O)O; Dab = NCC[C@H](N)C(=O)O; Dap = NC[C@H](N)C(=O)O
# Target: T1, human PD-1 / PD-L1-Ig binding on Jurkat cell line over-expressing human PD-1 (Jurkat-PD-1) (Homo sapiens, UniProt Q15116)
# T1 construct: expressed in transfected cells; host or cells: Jurkat
# Assay: Jurkat-PD-1 Cell Binding High-Content Screening Assay (CBA)
# Type: cell-based
# Details: Jurkat-PD-1 cells, PE-labeled PD-L1-Ig 20 nM final; read-out: Jurkat HPD1_PDL1 IC50
# Method in brief: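 PE-PD-L1-Ig 20 nM final; cells in DMEM/10% FCS; cpd pre-incubation 2 h, 37° C; ligand 1 h; PFA fix + Hoechst 33342; high-content imaging read-out.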
# T1 sequence (Q15116 25-288): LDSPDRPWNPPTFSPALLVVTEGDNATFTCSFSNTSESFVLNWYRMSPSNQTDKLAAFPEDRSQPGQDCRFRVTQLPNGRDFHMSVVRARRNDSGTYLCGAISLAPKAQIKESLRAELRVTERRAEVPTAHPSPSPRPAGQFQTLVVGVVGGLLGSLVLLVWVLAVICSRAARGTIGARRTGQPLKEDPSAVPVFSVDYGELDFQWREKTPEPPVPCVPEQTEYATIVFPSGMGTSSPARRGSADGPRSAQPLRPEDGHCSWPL
row,IC50,SMILES
1,4.6 nM,CC[C@H](C)[C@@H]1NC(=O)[C@H](Cc2ccc(-c3ccccc3)cc2)NC(=O)[C@H](C(C)C)NC(=O)[C@H](Cc2cccc(C)c2)NC(=O)[C@H](CC(=O)O)NC(=O)[C@H](Cc2ccc(C(=O)O)cc2)NC(=O)[C@H](Cc2ccc(OCC(=O)O)cc2)NC(=O)CSC[C@@H](C(=O)N[C@@H](C)C(N)=O)NC(=O)[C@H]([C@@H](C)O)NC(=O)[C@H](C(C)C)NC(=O)[C@H](CC(C)C)NC(=O)[C@H](CCN)NC(=O)[C@@H](CC(C)C)NC(=O)[C@H](CCCN)NC1=O [Compound 1249] ({CH2CO}-Y(Carboxymethyl)[Phe(4-COOH)]D[Phe(3-Me)]V[Bip]I[Orn][dL][Dab]LVTCA-NH2; thioether N-14)
2,6.9 nM,CC[C@H](C)[C@@H]1NC(=O)[C@H](Cc2ccc(-c3ccccc3)cc2)NC(=O)[C@H](C(C)C)NC(=O)[C@H](Cc2c[nH]c3ccccc23)NC(=O)[C@H](CC(=O)O)NC(=O)[C@H](Cc2ccc(C(=O)O)cc2)NC(=O)[C@H](Cc2ccc(OCC(=O)O)cc2)NC(=O)CSC[C@@H](C(=O)N[C@@H](C)C(N)=O)NC(=O)[C@H]([C@@H](C)O)NC(=O)[C@H](C(C)C)NC(=O)[C@H](CC(C)C)NC(=O)[C@H](CCN)NC(=O)[C@@H](CC(C)C)NC(=O)[C@H](CCCN)NC1=O [Compound 1250] ({CH2CO}-Y(Carboxymethyl)[Phe(4-COOH)]DWV[Bip]I[Orn][dL][Dab]LVTCA-NH2; thioether N-14)
3,7.9 nM,Cc1cccc(C[C@@H]2NC(=O)[C@H](CC(=O)O)NC(=O)[C@H](Cc3ccc(C(=O)O)cc3)NC(=O)[C@H](Cc3ccc(OCC(=O)O)cc3)NC(=O)CSC[C@@H](C(=O)N[C@@H](C)C(N)=O)NC(=O)[C@H]([C@@H](C)O)NC(=O)[C@H](C(C)C)NC(=O)[C@H](CC(C)C)NC(=O)[C@H](CCN)NC(=O)[C@@H](CC(C)C)NC(=O)[C@H](CCCN)NC(=O)[C@H](CCCNC(N)=O)NC(=O)[C@H](Cc3ccc(-c4ccccc4)cc3)NC(=O)[C@H](C(C)C)NC2=O)c1 [Compound 1251] ({CH2CO}-Y(Carboxymethyl)[Phe(4-COOH)]D[Phe(3-Me)]V[Bip][Cit][Orn][dL][Dab]LVTCA-NH2; thioether N-14)
4,21.5 nM,CC(C)C[C@@H]1NC(=O)[C@H](CCN)NC(=O)[C@@H](CC(C)C)NC(=O)[C@H](CCCN)NC(=O)[C@H](CCCNC(N)=O)NC(=O)[C@H](Cc2ccc(-c3ccccc3)cc2)NC(=O)[C@H](C(C)C)NC(=O)[C@H](Cc2c[nH]c3ccccc23)NC(=O)[C@H](CC(=O)O)NC(=O)[C@H](Cc2ccc(C(=O)O)cc2)NC(=O)[C@H](Cc2ccc(OCC(=O)O)cc2)NC(=O)CSC[C@@H](C(=O)N[C@@H](C)C(N)=O)NC(=O)[C@H]([C@@H](C)O)NC(=O)[C@H](C(C)C)NC1=O [Compound 1252] ({CH2CO}-Y(Carboxymethyl)[Phe(4-COOH)]DWV[Bip][Cit][Orn][dL][Dab]LVTCA-NH2; thioether N-14)
5,6.8 nM,Cc1cccc(C[C@@H]2NC(=O)[C@H](CC(=O)O)NC(=O)[C@H](CCc3ccncc3)NC(=O)[C@H](CN)NC(=O)CSC[C@@H](C(=O)N[C@@H](C)C(N)=O)NC(=O)[C@H]([C@@H](C)O)NC(=O)[C@H](C(C)C)NC(=O)[C@H](CC(C)C)NC(=O)[C@H](CCN)NC(=O)[C@@H](CC(C)C)NC(=O)[C@H](CCCN)NC(=O)[C@H](C(C)C)NC(=O)[C@H](Cc3ccc(-c4ccccc4)cc3)NC(=O)[C@H](C(C)C)NC2=O)c1 [Compound 1253] ({CH2CO}-[Dap][h4Pal]D[Phe(3-Me)]V[Bip]V[Orn][dL][Dab]LVTCA-NH2; thioether N-14)
6,7.4 nM,CC(C)C[C@@H]1NC(=O)[C@H](Cc2c[nH]c3ccccc23)NC(=O)[C@H](CC(=O)O)NC(=O)[C@H](Cc2ccc(C(=O)O)cc2)NC(=O)[C@H](Cc2ccc(OCC(=O)O)cc2)NC(=O)CSC[C@@H](C(=O)NCC(N)=O)NC(=O)[C@H](CO)NC(=O)[C@H](C(C)C)NC(=O)[C@H](CC(C)C)NC(=O)[C@H](CCN)NC(=O)[C@@H](CC(C)C)NC(=O)[C@H](CCCN)NC(=O)[C@H](C(C)C)NC(=O)[C@H](Cc2ccc(-c3ccccc3)cc2)NC1=O [Compound 1254] ({CH2CO}-Y(Carboxymethyl)[Phe(4-COOH)]DWL[Bip]V[Orn][dL][Dab]LVSCG-NH2; thioether N-14)
7,6.7 nM,CC(C)C[C@@H]1NC(=O)[C@H](Cc2c[nH]c3ccccc23)NC(=O)[C@H](CC(=O)O)NC(=O)[C@H](Cc2ccc(CCC(=O)O)cc2)NC(=O)[C@H](Cc2ccc(OCC(=O)O)cc2)NC(=O)CSC[C@@H](C(=O)NCC(N)=O)NC(=O)[C@H](CO)NC(=O)[C@H](C(C)C)NC(=O)[C@H](CC(C)C)NC(=O)[C@H](CCN)NC(=O)[C@@H](CC(C)C)NC(=O)[C@H](CCCN)NC(=O)[C@H](C(C)C)NC(=O)[C@H](Cc2ccc(-c3ccccc3)cc2)NC1=O [Compound 1256] ({CH2CO}-Y(Carboxymethyl)[Phe(4-CH2CH2COOH)]DWL[Bip]V[Orn][dL][Dab]LVSCG-NH2; thioether N-14)
8,5.6 nM,CC(C)C[C@@H]1NC(=O)[C@H](Cc2c[nH]c3ccccc23)NC(=O)[C@H](CC(=O)O)NC(=O)[C@H](Cc2ccc(OCC(=O)O)cc2)NC(=O)[C@H](CN)NC(=O)CSC[C@@H](C(=O)NCC(N)=O)NC(=O)[C@H](CO)NC(=O)[C@H](C(C)C)NC(=O)[C@H](CC(C)C)NC(=O)[C@H](CCN)NC(=O)[C@@H](CC(C)C)NC(=O)[C@H](CCCN)NC(=O)[C@H](C(C)C)NC(=O)[C@H](Cc2ccc(-c3ccccc3)cc2)NC1=O [Compound 1257] ({CH2CO}-[Dap]Y(Carboxymethyl)DWL[Bip]V[Orn][dL][Dab]LVSCG-NH2; thioether N-14)
9,8 nM,CC(C)C[C@@H]1NC(=O)[C@H](Cc2c[nH]c3ccccc23)NC(=O)[C@H](CC(=O)O)NC(=O)[C@H](Cc2ccncc2)NC(=O)[C@H](Cc2ccc(OCC(=O)O)cc2)NC(=O)CSC[C@@H](C(=O)NCC(N)=O)NC(=O)[C@H](CO)NC(=O)[C@H](C(C)C)NC(=O)[C@H](CC(C)C)NC(=O)[C@H](CCN)NC(=O)[C@@H](CC(C)C)NC(=O)[C@H](CCCN)NC(=O)[C@H](C(C)C)NC(=O)[C@H](Cc2ccc(-c3ccccc3)cc2)NC1=O [Compound 1258] ({CH2CO}-Y(Carboxymethyl)[4Pal]DWL[Bip]V[Orn][dL][Dab]LVSCG-NH2; thioether N-14)
10,7.4 nM,Cc1cccc(C[C@@H]2NC(=O)[C@H](CC(=O)O)NC(=O)[C@H](Cc3ccc(C(=O)O)cc3)NC(=O)[C@H](Cc3ccc(OCC(=O)O)cc3)NC(=O)CSC[C@@H](C(=O)NCC(N)=O)NC(=O)[C@H](CO)NC(=O)[C@H](C(C)C)NC(=O)[C@H](CC(C)C)NC(=O)[C@H](CCN)NC(=O)[C@@H](CC(C)C)NC(=O)[C@H](CCCN)NC(=O)[C@H](C(C)C)NC(=O)[C@H](Cc3ccc(-c4ccccc4)cc3)NC(=O)[C@H](CC(C)C)NC2=O)c1 [Compound 1260] ({CH2CO}-Y(Carboxymethyl)[Phe(4-COOH)]D[Phe(3-Me)]L[Bip]V[Orn][dL][Dab]LVSCG-NH2; thioether N-14)
11,13.1 nM,Cc1cccc(C[C@@H]2NC(=O)[C@H](CC(=O)O)NC(=O)[C@H](Cc3ccncc3)NC(=O)[C@H](CN)NC(=O)CSC[C@@H](C(=O)NCC(N)=O)NC(=O)[C@H](CO)NC(=O)[C@H](C(C)C)NC(=O)[C@H](CC(C)C)NC(=O)[C@H](CCN)NC(=O)[C@@H](CC(C)C)NC(=O)[C@H](CCCN)NC(=O)[C@H](C(C)C)NC(=O)[C@H](Cc3ccc(-c4ccccc4)cc3)NC(=O)[C@H](CC(C)C)NC2=O)c1 [Compound 1261] ({CH2CO}-[Dap][4Pal]D[Phe(3-Me)]L[Bip]V[Orn][dL][Dab]LVSCG-NH2; thioether N-14)
12,4.6 nM,Cc1cccc(C[C@@H]2NC(=O)[C@H](CC(=O)O)NC(=O)[C@H](Cc3ccc(OCC(=O)O)cc3)NC(=O)[C@H](Cc3ccc(OCC(=O)O)cc3)NC(=O)CSC[C@@H](C(=O)NCC(N)=O)NC(=O)[C@H](CO)NC(=O)[C@H](C(C)C)NC(=O)[C@H](CC(C)C)NC(=O)[C@H](CCN)NC(=O)[C@@H](CC(C)C)NC(=O)[C@H](CCCN)NC(=O)[C@H](C(C)C)NC(=O)[C@H](Cc3ccc(-c4ccccc4)cc3)NC(=O)[C@H](CC(C)C)NC2=O)c1 [Compound 1262] ({CH2CO}-Y(Carboxymethyl)Y(Carboxymethyl)D[Phe(3-Me)]L[Bip]V[Orn][dL][Dab]LVSCG-NH2; thioether N-14)
13,6.2 nM,Cc1cccc(C[C@@H]2NC(=O)[C@H](CC(=O)O)NC(=O)[C@H](Cc3ccc(OCC(=O)O)cc3)NC(=O)[C@H](Cc3ccncc3)NC(=O)CSC[C@@H](C(=O)NCC(N)=O)NC(=O)[C@H](CO)NC(=O)[C@H](C(C)C)NC(=O)[C@H](CC(C)C)NC(=O)[C@H](CCN)NC(=O)[C@@H](CC(C)C)NC(=O)[C@H](CCCN)NC(=O)[C@H](C(C)C)NC(=O)[C@H](Cc3ccc(-c4ccccc4)cc3)NC(=O)[C@H](CC(C)C)NC2=O)c1 [Compound 1263] ({CH2CO}-[4Pal]Y(Carboxymethyl)D[Phe(3-Me)]L[Bip]V[Orn][dL][Dab]LVSCG-NH2; thioether N-14)
14,4.5 nM,Cc1cccc(C[C@@H]2NC(=O)[C@H](CC(=O)O)NC(=O)[C@H](Cc3ccc(OCC(=O)O)cc3)NC(=O)[C@H](CN)NC(=O)CSC[C@@H](C(=O)NCC(N)=O)NC(=O)[C@H](CO)NC(=O)[C@H](C(C)C)NC(=O)[C@H](CC(C)C)NC(=O)[C@H](CCN)NC(=O)[C@@H](CC(C)C)NC(=O)[C@H](CCCN)NC(=O)[C@H](C(C)C)NC(=O)[C@H](Cc3ccc(-c4ccccc4)cc3)NC(=O)[C@H](CC(C)C)NC2=O)c1 [Compound 1264] ({CH2CO}-[Dap]Y(Carboxymethyl)D[Phe(3-Me)]L[Bip]V[Orn][dL][Dab]LVSCG-NH2; thioether N-14)
15,7.7 nM,Cc1cccc(C[C@@H]2NC(=O)[C@H](CC(=O)O)NC(=O)[C@H](Cc3ccncc3)NC(=O)[C@H](Cc3ccc(OCC(=O)O)cc3)NC(=O)CSC[C@@H](C(=O)NCC(N)=O)NC(=O)[C@H](CO)NC(=O)[C@H](C(C)C)NC(=O)[C@H](CC(C)C)NC(=O)[C@H](CCN)NC(=O)[C@@H](CC(C)C)NC(=O)[C@H](CCCN)NC(=O)[C@H](C(C)C)NC(=O)[C@H](Cc3ccc(-c4ccccc4)cc3)NC(=O)[C@H](CC(C)C)NC2=O)c1 [Compound 1265] ({CH2CO}-Y(Carboxymethyl)[4Pal]D[Phe(3-Me)]L[Bip]V[Orn][dL][Dab]LVSCG-NH2; thioether N-14)
